# Test results: patent US20240216288A1, “LIPID NANOPARTICLES CONTAINING POLYNUCLEOTIDES ENCODING PROPIONYL-COA CARBOXYLASE ALPHA AND BETA SUBUNITS AND USES THEREOF” (ModernaTX, Inc., priority 2021, published 2024)
# Assay: Residual parent lipid in mouse liver at 24 h (hEPO study)
# Assay type: in vivo
# Details: CD-1 mice
compound,measurement,value
CCCCCC(CCCCC)CCOC(=O)CCCCCCCN(CCO)CCCCCCCC(=O)OCCC(CCCCC)CCCCC [compound 25],Parent Lipid Remaining (nmol/g liver tissue) at 24 h,0.1 0.04 nmol/g liver tissue
